One test is filed under the species Rattus norvegicus. In words: Inhibition of rat liver mitochondrial ATPase assessed as specific activity at 0.42 mM relative to control. Details: scale not given: the % may be the effect or the level left.
For test [1], the species on record is Bos taurus. In words: Inhibition of beef heart mitochondrial NADH oxidase assessed as specific activity at 0.35 mM preincubated for 15 mins relative to control. Also noted: scale not given: the % may be the effect or the level left.
Test [2] is filed under the species Bos taurus. Nature of the test: Inhibition of beef heart mitochondrial succinoxidase assessed as specific activity at 0.35 mM preincubated for 15 mins relative to control. Also noted: scale not given: the % may be the effect or the level left.
Test [3] in a line: Inhibition of beef heart mitochondrial NADH oxidase assessed per mg of protein. Particulars: read-out: I50. Also noted: species or system Bos taurus.
Test [4] can be described thus: Inhibition of rat liver mitochondrial ATPase assessed per mg of protein. Particulars: read-out: I50.
Test [5] is filed under the species Bos taurus. Nature of the test: Inhibition of beef heart mitochondrial NADH oxidase assessed as complete enzyme inhibition at 100 nmol/mg.
A short description of test [6]: Inhibition of beef heart mitochondrial succinoxidase assessed per mg of protein. Details: species or system Bos taurus. Particulars: read-out: I50.

The source made the active and inactive calls. No cut-off for these calls is given here.

With `COc1ccc(-c2cc(=O)c3c(O)cc(O)cc3o2)cc1`, the Activity in the test filed under Rattus norvegicus worked out at 98.7%; in the test filed under Bos taurus [1], 88.6%; in the test listed under Bos taurus [2] it was 99.3%.
Regarding `COc1ccc(-c2oc3cc(O)cc(O)c3c(=O)c2O)cc1`, the Activity was found to be 96.1% in the test listed under Rattus norvegicus, 70.6% in the test listed under Bos taurus [1] and 98.7% in the test filed under Bos taurus [2].
In the case of `COc1ccccc1-c1cc(=O)c2c(OC)cccc2o1`, the Activity in the test listed under Rattus norvegicus amounted to 77.3%; in the test listed under Bos taurus [1], 86.9%; in the test filed under Bos taurus [2] it was 80.8%.
On the same counts, the results for `O=c1c(O)c(-c2ccc(O)cc2)oc2cc(O)cc(O)c12` are 94.2%, 59.3% and 84.4%.
On to `O=c1cc(-c2ccccc2)oc2cccc(O)c12` [5-HYDROXYFLAVONE], for which the values for the Activity in the test filed under Rattus norvegicus, in the test listed under Bos taurus [1] and in the test listed under Bos taurus [2] were 98.9%, 14.6% and 95.7%, respectively. For the same molecule, the IC50 in test [3] amounted to 425 nmol/mg.
For `O=c1cc(-c2ccccc2)oc2cc(O)ccc12` [7-HYDROXYFLAVONE], the Activity stood at 95.1% in the test filed under Rattus norvegicus, 54.2% in the test listed under Bos taurus [1] and 91.3% in the test filed under Bos taurus [2]. Moreover, the IC50 in test [3] was 1400 nmol/mg.
Consider `O=C1c2c(O)cc(O)cc2O[C@H](c2ccc(O)c(O)c2)[C@H]1O` [(+)-TAXIFOLIN], for which the IC50 in test [3] is 1040 nmol/mg.
On to `O=c1cc(-c2ccc(O)cc2)oc2cc(O)cc(O)c12` [APIGENIN], for which the Activity in the test filed under Rattus norvegicus is 84.6%; in the test filed under Bos taurus [1], 12.9%; in the test listed under Bos taurus [2], 93.8%. In addition, in test [3], the IC50 was determined as 920 nmol/mg.
Turning to `O=c1cc(-c2ccccc2)oc2cc(O)cc(O)c12` [CHRYSIN], the Activity in the test listed under Rattus norvegicus was found to be 77.7%; in the test listed under Bos taurus [1], 11.2%; in the test filed under Bos taurus [2] it was 75.8%. Besides, in test [3], the IC50 came to 250 nmol/mg.
On to `O=c1c(O)c(-c2ccc(O)c(O)c2)oc2cc(O)ccc12` [FISETIN], for which the Activity was 17.2% in the test filed under Rattus norvegicus, 8.3% in the test listed under Bos taurus [1] and 9.6% in the test filed under Bos taurus [2]. For the same molecule, the IC50 came to 15 nmol/mg in test [3], 480 nmol/mg in test [4] and 45 nmol/mg in test [6]. For the same molecule, the result in the test filed under Bos taurus [5] was Active.
Take `O=C1CC(c2ccccc2)Oc2ccccc21` (centres undefined) [FLAVANONE]: the Activity worked out at 73.4% in the test filed under Rattus norvegicus, 6.5% in the test listed under Bos taurus [1] and 84.8% in the test filed under Bos taurus [2]. For the same molecule, the IC50 in test [3] was found to be 310 nmol/mg.
As for `O=c1cc(-c2ccccc2)oc2ccccc12` [FLAVONE], the Activity in the test filed under Rattus norvegicus is 67.4%; in the test listed under Bos taurus [1], 14.5%; in the test filed under Bos taurus [2], 82%. Besides, the IC50 in test [3] was determined as 240 nmol/mg.
With `O=C1c2ccc(O)cc2O[C@H](c2ccc(O)c(O)c2)[C@H]1O` [FUSTIN], the IC50 in test [3] stood at 671 nmol/mg.
As for `O=c1c(O)c(-c2ccccc2)oc2cc(O)cc(O)c12` [GALANGIN], the Activity in the test filed under Rattus norvegicus was found to be 99.9%; in the test listed under Bos taurus [1] it was 48.6%; in the test listed under Bos taurus [2] it was 92.4%. Further, in test [3], the IC50 amounted to 1670 nmol/mg.
On the same counts, the results for `O=c1c(-c2ccc(O)cc2)coc2cc(O)cc(O)c12` [GENISTEIN] are 69.2%, 6.6%, 98.3% and 365 nmol/mg.
With `O=c1c(O)c(-c2ccc(O)cc2O)oc2cc(O)cc(O)c12` [MORIN], the Activity is 13.3% in the test listed under Rattus norvegicus, 18% in the test listed under Bos taurus [1] and 31.5% in the test listed under Bos taurus [2]. The IC50 in test [3] turned out to be 430 nmol/mg; in test [4] it was 120 nmol/mg; in test [6], 730 nmol/mg.
Take `O=c1c(O)c(-c2cc(O)c(O)c(O)c2)oc2cc(O)cc(O)c12` [MYRICETIN]: the Activity in the test listed under Rattus norvegicus was determined as 8.4%; in the test listed under Bos taurus [1] it was 12%; in the test listed under Bos taurus [2], 14.7%. The results for the IC50 in test [3], in test [4] and in test [6] were 35 nmol/mg, 370 nmol/mg and 45 nmol/mg, respectively.
With `O=C1C[C@@H](c2ccc(O)cc2)Oc2cc(O)cc(O)c21` [NARINGENIN], the Activity stood at 43.6% in the test listed under Rattus norvegicus, 83.9% in the test listed under Bos taurus [1] and 84.8% in the test listed under Bos taurus [2]. The IC50 in test [4] amounted to 1800 nmol/mg.
Consider `O=c1c(O)c(-c2ccc(O)c(O)c2)oc2cc(O)cc(O)c12` [QUERCETIN], for which the Activity turned out to be 7.1% in the test listed under Rattus norvegicus, 6.4% in the test listed under Bos taurus [1] and 21.8% in the test listed under Bos taurus [2]. Besides, the IC50 in test [3] was determined as 145 nmol/mg; in test [4], 205 nmol/mg; in test [6], 715 nmol/mg.
As to `C[C@@H]1O[C@@H](OC[C@H]2O[C@@H](Oc3c(-c4ccc(O)c(O)c4)oc4cc(O)cc(O)c4c3=O)[C@H](O)[C@@H](O)[C@@H]2O)[C@H](O)[C@H](O)[C@H]1O` [RUTIN], the results for the Activity in the test listed under Rattus norvegicus, in the test listed under Bos taurus [1] and in the test listed under Bos taurus [2] were 66.5%, 49.1% and 66.7%, respectively. Further, in test [3], the IC50 stood at 1890 nmol/mg.

The values are drawn from ChEMBL document CHEMBL1150720, “Inhibition of mitochondrial NADH oxidase, succinoxidase, and ATPase by naturally occurring flavonoids” (J Nat Prod, 1987).
